Reference: patent US12268674B2, “Mi-2β inhibitor as an immunotherapy agent” (BioVentures, LLC, priority 2021, dated 2025)

Columns and labels:
DERA = molecular target: T1, DERA (Homo sapiens, UniProt Q9Y315); experiment: ATPase profile (ATP acyl phosphate probe); type: binding; conditions: SEQ ID NO: 71, ATP BS
T1 construct: endogenous in cells; host or cells: A375 cell lysate

PSMC3 = molecular target: T2, PSMC3 (Homo sapiens, UniProt P17980); experiment: ATPase profile (ATP acyl phosphate probe); type: binding; conditions: PSMC3, SEQ ID NO: 175, ATP BS
T2 construct: to get the native cell lysate; endogenous in cells; host or cells: A375 cell lysate

NME1, NME2 = experiment: ATPase profile (ATP acyl phosphate probe); type: binding; conditions: NME1, NME2, SEQ ID NO: 133, ATP BS
ABCB6 = molecular target: T3, ABCB6 (Homo sapiens, UniProt Q9NP58); experiment: ATPase profile (ATP acyl phosphate probe); type: binding; conditions: ABCB6, SEQ ID NO: 3, ATP BS
T3 construct: to get the native cell lysate; host or cells: A375 cell lysate

CCT7 = molecular target: T4, CCT7 (Homo sapiens, UniProt Q99832); experiment: ATPase profile (ATP acyl phosphate probe); type: binding; conditions: CCT7, SEQ ID NO: 55, ATP BS
T4 construct: host or cells: A375 cell lysate

SMC1A = molecular target: T5, SMC1A (Homo sapiens, UniProt Q14683); experiment: ATPase profile (ATP acyl phosphate probe); type: binding; conditions: SEQ ID NO: 193, ATP BS
T5 construct: to get the native cell lysate; endogenous in cells; host or cells: A375 cell lysate

B16F10 melanoma graft = experiment: Syngeneic melanoma graft mouse model
Description: To test Z36-MP5 function in syngeneic mouse model, B16F10 cells (1.5×105) were mixed with BD matrigel (Matrix Growth Factor Reduced) (BD, 354230) in 100 μl PBS, and then mouse subcutaneous injection and tumor graft monitor were performed as described above. Except that vehicle [5% (w/v) Kolliphor HS 15 (Sigma)] in normal saline or formulated 30 mg/kg Z36-MP5 was administered with i.p. injection once a day starting at day 6, together with i.p. injection of control IgG antibodies (10 mg/kg) or anti-PD-1 (RMP1-14, BioXCell, 10 mg/kg) on day 6, 9, 12, 15 and 18. The mice were euthanized after indicated days or when the allowable endpoint size (1 cm^3) was reached.
Tumors were minced with scissors, and then digested with the digestion buffer (RPMI 1640 medium, 5% FBS, 1% penicillin-streptomycin, 25 mM HEPES, and 300 U collagenase (Sigma C0130)) on a shaker at 37° C. for 2 hours. Single cells were prepared through a 70 m cell strainer. Erythrocytes were removed by incubation in red blood cell lysis buffer (R7757, Sigma) at room temperature for 5 min. The cells were prepared in PBS (with concentration of ˜2×10^7) for studies.
The single-cell suspension were fixed with 2% paraformaldehyde solution (J19943K2, Thermo Scientific). And then the cells were stained with the follow antibodies: anti-mouse CD45 APC (104, BD pharmingen, 561875), anti-mouse CD3e PE (145-2C11, BD pharmingen, 553063), anti-mouse CD4 FITC (RM4-5, BD pharmingen, 553046), anti-mouse CD4 PE/Cy7 (GK1.5, BioLegend, 100421), anti-mouse CD8 FITC (53-6.7, BD pharmingen, 553031), anti-mouse CD8a APC/Cy7 (53-6.7, BioLegend 100713), anti-mouse IFN-γ PE (XMG1.2, eBioscience, 12731181), anti-mouse CD69 PE (H1.2F3, Biolegend, 104508), anti-mouse CD25 Alexa Fluor 488 (PC61.5, eBioscience, 53025182), anti-mouse CD107a-V450 (1D4B, BD, 560648), anti-human/mouse granzyme B FITC (GB 11, BioLegend, 515403). The regulatory T cells in TILs were stained with the Mouse Regulatory T Cell Staining kit #1 (88-8111, ThermoFisher Scienctific), with antibodies of anti-mouse CD4 FITC (RM4-5), anti-mouse CD25 APC (PC61.5) anti-mouse Foxp3 PE (FJK-16s). BD LSRII was used for data acquisition and FlowJo was used for data analysis.

AK4 = molecular target: T6, AK4 (Homo sapiens, UniProt P27144); experiment: ATPase profile (ATP acyl phosphate probe); type: binding; conditions: AK4, SEQ ID NO: 35, ATP BS
T6 construct: to get the native cell lysate; host or cells: A375 cell lysate

DDX39 = molecular target: T7, DDX39 (Homo sapiens, UniProt O00148); experiment: ATPase profile (ATP acyl phosphate probe); type: binding; conditions: DDX39, SEQ ID NO: 69, ATP BS
T7 construct: endogenous in cells; host or cells: A375 cell lysate
T7 sequence (O00148 whole entry): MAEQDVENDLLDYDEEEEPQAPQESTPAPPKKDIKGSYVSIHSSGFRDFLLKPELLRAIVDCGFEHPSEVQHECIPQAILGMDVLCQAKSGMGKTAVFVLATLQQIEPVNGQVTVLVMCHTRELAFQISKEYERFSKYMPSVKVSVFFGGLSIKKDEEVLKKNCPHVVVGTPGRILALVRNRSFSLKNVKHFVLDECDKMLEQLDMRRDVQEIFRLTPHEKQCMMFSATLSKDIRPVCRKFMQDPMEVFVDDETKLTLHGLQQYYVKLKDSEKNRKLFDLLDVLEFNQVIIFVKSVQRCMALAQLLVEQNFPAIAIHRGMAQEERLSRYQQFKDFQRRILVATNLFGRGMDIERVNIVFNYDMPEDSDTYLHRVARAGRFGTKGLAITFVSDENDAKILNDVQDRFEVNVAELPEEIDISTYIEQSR

TRAP1 = molecular target: T8, TRAP1 (Homo sapiens, UniProt Q12931); experiment: ATPase profile (ATP acyl phosphate probe); type: binding
T8 construct: to get the native cell lysate; endogenous in cells; host or cells: A375 cell lysate
T8 sequence (Q12931 60-704): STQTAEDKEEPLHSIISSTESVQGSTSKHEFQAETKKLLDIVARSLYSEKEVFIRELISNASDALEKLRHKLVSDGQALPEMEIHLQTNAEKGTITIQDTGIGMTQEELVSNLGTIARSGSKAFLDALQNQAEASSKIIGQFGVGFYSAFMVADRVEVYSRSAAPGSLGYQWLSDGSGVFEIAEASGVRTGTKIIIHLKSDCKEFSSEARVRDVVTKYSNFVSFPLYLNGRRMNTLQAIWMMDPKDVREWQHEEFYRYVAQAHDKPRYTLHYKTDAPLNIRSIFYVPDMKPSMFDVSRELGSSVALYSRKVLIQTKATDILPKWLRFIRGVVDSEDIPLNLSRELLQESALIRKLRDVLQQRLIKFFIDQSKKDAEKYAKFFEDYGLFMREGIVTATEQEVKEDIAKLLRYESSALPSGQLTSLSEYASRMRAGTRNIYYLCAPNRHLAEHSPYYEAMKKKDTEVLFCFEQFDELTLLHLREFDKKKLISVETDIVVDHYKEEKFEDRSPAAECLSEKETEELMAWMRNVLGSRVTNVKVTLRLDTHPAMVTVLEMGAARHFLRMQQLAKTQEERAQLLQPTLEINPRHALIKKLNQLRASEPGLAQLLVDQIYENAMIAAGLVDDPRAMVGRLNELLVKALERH

ABCF2 = molecular target: T9, ABCF2 (Homo sapiens, UniProt Q9UG63); experiment: ATPase profile (ATP acyl phosphate probe); type: binding
T9 construct: to get the native cell lysate; host or cells: A375 cell lysate
T9 sequence (Q9UG63 whole entry): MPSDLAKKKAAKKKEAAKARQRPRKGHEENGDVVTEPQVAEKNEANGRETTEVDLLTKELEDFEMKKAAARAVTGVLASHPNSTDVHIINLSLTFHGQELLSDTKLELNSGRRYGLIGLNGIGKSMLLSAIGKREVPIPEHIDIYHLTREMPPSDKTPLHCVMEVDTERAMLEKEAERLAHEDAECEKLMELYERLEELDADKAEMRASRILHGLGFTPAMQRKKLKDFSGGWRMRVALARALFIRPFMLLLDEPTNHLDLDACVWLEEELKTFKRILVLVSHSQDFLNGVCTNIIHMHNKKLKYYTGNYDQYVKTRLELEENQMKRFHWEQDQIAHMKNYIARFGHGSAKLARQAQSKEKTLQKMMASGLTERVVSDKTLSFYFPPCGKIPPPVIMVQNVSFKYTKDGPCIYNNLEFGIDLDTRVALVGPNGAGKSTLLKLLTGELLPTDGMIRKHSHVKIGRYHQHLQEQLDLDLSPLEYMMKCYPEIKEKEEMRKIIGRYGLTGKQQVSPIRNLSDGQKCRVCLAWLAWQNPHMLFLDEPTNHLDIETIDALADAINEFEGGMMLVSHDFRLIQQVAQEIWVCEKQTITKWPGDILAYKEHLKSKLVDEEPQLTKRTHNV

AK5 = molecular target: T10, AK5 (Homo sapiens, UniProt Q9Y6K8); experiment: ATPase profile (ATP acyl phosphate probe); type: binding; conditions: AK5, SEQ ID NO: 36, ATP BS
T10 construct: to get the native cell lysate; host or cells: A375 cell lysate

ATP5B = molecular target: T11, ATP5B (Homo sapiens, UniProt P06576); experiment: ATPase profile (ATP acyl phosphate probe); type: binding; conditions: SEQ ID NO: 48, ATP BS
T11 construct: to get the native cell lysate; host or cells: A375 cell lysate

AARS = molecular target: T12, AARS (Homo sapiens, UniProt P49588); experiment: ATPase profile (ATP acyl phosphate probe); type: binding; conditions: SEQ ID NO: 1, ATP BS
T12 construct: to get the native cell lysate; host or cells: A375 cell lysate

TOR2A, TOR2X = experiment: ATPase profile (ATP acyl phosphate probe); type: binding; conditions: SEQ ID NO: 205, ATP BS
PMS2 = molecular target: T13, PMS2 (Homo sapiens, UniProt P54278); experiment: ATPase profile (ATP acyl phosphate probe); type: binding; conditions: PMS2, SEQ ID NO: 162, ATP BS
T13 construct: to get the native cell lysate; endogenous in cells; host or cells: A375 cell lysate
T13 sequence (P54278 whole entry): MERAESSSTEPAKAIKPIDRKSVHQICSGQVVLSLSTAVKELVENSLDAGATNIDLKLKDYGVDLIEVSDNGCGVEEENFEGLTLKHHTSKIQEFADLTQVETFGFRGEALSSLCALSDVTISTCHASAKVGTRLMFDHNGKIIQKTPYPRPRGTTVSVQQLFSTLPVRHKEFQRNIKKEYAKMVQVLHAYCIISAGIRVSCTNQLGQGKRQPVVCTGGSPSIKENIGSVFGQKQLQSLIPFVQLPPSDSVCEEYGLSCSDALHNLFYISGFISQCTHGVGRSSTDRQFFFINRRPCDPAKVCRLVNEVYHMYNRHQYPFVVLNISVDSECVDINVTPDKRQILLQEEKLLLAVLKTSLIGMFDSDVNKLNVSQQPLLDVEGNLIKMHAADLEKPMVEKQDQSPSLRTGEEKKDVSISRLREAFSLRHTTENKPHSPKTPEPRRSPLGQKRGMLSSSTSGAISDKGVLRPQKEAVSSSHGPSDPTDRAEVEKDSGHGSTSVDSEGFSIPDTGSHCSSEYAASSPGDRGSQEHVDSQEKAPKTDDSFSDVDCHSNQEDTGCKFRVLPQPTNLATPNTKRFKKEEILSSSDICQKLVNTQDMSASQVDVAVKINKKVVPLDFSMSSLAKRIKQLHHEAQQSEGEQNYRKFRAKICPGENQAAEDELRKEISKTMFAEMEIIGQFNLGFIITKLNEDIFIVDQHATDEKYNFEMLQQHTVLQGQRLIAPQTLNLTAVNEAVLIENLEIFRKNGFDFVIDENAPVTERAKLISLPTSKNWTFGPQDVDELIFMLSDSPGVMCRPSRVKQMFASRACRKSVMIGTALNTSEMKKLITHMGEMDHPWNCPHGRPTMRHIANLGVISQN

AK7 = molecular target: T14, AK7 (Homo sapiens, UniProt Q96M32); experiment: ATPase profile (ATP acyl phosphate probe); type: binding; conditions: AK7, SEQ ID NO: 37, ATP BS
T14 construct: to get the native cell lysate; host or cells: A375 cell lysate

PDE12 = molecular target: T15, PDE12 (Homo sapiens, UniProt Q6L8Q7); experiment: ATPase profile (ATP acyl phosphate probe); type: binding; conditions: PDE12, SEQ ID NO: 155, ATP BS
T15 construct: to get the native cell lysate; endogenous in cells; host or cells: A375 cell lysate

ACTR2 = molecular target: T16, ACTR2 (Homo sapiens, UniProt P61160); experiment: ATPase profile (ATP acyl phosphate probe); type: binding
T16 construct: to get the native cell lysate; host or cells: A375 cell lysate

NMNAT3 = molecular target: T17, NMNAT3 (Homo sapiens, UniProt Q96T66); experiment: ATPase profile (ATP acyl phosphate probe); type: binding; conditions: NMNAT3, SEQ ID NO: 135, ATP BS
T17 construct: to get the native cell lysate; endogenous in cells; host or cells: A375

TK2 = molecular target: T18, TK2 (Homo sapiens, UniProt O00142); experiment: ATPase profile (ATP acyl phosphate probe); type: binding; conditions: TK2, SEQ ID NO: 201, ATP BS
T18 construct: to get the native cell lysate; endogenous in cells; host or cells: A375 cell lysate
T18 sequence (O00142 34-265): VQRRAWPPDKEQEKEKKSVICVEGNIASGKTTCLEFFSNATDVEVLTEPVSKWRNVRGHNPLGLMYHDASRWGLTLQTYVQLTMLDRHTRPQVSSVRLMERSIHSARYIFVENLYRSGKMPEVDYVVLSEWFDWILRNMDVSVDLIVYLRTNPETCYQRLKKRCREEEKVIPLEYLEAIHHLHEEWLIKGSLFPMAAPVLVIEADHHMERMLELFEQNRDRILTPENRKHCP

NRK1 = molecular target: T19, NRK1 (Homo sapiens, UniProt Q9NWW6); experiment: ATPase profile (ATP acyl phosphate probe); type: binding; conditions: NRK1, SEQ ID NO: 137, ATP BS
T19 construct: to get the native cell lysate; endogenous in cells; host or cells: A375

ATG7 = molecular target: T20, ATG7 (Homo sapiens, UniProt O95352); experiment: ATPase profile (ATP acyl phosphate probe); type: binding
T20 construct: to get the native cell lysate; host or cells: A375 cell lysate
T20 sequence (O95352 whole entry): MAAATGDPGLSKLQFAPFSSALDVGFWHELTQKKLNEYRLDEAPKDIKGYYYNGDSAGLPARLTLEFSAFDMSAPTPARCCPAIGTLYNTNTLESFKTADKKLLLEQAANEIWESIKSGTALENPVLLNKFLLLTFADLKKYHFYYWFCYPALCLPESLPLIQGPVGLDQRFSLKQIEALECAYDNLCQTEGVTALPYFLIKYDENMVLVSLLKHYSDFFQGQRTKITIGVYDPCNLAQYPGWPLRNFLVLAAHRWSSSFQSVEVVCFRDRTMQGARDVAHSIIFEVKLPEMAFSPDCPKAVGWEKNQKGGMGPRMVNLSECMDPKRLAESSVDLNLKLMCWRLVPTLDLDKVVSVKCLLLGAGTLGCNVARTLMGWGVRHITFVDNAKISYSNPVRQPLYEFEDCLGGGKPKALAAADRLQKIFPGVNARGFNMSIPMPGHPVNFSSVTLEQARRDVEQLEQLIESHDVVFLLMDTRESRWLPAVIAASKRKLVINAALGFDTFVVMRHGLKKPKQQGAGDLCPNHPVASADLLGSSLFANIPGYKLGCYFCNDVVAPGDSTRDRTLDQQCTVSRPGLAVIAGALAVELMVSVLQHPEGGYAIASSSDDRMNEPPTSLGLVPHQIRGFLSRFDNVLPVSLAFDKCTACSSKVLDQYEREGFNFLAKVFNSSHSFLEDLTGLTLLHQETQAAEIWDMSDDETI

HSPA2 = molecular target: T21, HSPA2 (Homo sapiens, UniProt P54652); experiment: ATPase profile (ATP acyl phosphate probe); type: binding
T21 construct: to get the native cell lysate; endogenous in cells; host or cells: A375
T21 sequence (P54652 whole entry): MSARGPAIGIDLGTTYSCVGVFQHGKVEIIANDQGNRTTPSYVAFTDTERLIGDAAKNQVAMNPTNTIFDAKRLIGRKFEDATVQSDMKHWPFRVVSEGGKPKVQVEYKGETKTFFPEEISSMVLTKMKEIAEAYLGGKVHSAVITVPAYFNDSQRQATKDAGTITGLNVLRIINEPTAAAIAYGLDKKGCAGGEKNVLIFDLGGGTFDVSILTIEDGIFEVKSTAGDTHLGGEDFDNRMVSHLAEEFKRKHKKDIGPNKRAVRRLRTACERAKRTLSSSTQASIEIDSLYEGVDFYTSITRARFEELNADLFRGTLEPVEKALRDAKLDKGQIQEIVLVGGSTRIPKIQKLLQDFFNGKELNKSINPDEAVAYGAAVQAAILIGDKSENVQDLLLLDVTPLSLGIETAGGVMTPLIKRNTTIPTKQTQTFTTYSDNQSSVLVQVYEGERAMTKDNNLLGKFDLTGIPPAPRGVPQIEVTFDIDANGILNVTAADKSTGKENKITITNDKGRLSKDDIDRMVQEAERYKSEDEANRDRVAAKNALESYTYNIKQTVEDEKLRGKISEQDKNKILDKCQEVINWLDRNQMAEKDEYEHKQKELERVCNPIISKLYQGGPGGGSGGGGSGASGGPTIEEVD

NVL = molecular target: T22, NVL (Homo sapiens, UniProt O15381); experiment: ATPase profile (ATP acyl phosphate probe); type: binding
T22 construct: to get the native cell lysate; endogenous in cells; host or cells: A375
T22 sequence (O15381 whole entry): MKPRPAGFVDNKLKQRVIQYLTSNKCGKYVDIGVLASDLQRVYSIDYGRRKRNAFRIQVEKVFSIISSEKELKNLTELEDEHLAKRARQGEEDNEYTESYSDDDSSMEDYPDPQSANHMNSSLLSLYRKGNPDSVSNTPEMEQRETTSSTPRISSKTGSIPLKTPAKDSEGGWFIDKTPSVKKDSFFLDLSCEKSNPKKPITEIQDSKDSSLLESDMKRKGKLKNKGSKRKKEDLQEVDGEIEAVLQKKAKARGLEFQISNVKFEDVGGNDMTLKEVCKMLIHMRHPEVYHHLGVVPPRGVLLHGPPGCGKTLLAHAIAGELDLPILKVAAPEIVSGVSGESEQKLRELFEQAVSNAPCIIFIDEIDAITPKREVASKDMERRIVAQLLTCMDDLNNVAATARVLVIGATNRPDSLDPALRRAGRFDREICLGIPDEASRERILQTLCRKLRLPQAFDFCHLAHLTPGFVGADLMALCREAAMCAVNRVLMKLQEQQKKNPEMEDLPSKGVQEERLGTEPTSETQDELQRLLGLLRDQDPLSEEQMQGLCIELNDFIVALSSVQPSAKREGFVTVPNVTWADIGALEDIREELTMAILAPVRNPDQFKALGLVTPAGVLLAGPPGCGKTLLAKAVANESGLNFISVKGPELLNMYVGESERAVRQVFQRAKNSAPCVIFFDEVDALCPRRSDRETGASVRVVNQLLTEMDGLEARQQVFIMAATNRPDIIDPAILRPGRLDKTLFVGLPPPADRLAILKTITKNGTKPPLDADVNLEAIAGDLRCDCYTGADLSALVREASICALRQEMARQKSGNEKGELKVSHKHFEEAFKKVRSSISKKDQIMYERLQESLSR

MVK = molecular target: T23, MVK (Homo sapiens, UniProt Q03426); experiment: ATPase profile (ATP acyl phosphate probe); type: binding; conditions: SEQ ID NO: 127, ATP BS
T23 construct: to get the native cell lysate; endogenous in cells; host or cells: A375

HSP90AA = molecular target: T24, HSP90AA (Homo sapiens, UniProt P07900); experiment: ATPase profile (ATP acyl phosphate probe); type: binding; conditions: SEQ ID NO: 95, ATP BS
T24 construct: to get the native cell lysate; endogenous in cells; host or cells: A375

PSMD9 = PSMD9 (Homo sapiens, UniProt O00233); experiment: ATPase profile (ATP acyl phosphate probe); type: binding; conditions: PSMD9, SEQ ID NO: 179, ATP BS; read-out: Inhibition (%) by 1 μM Z36-MP5
[1] = Z36-MP5 30 mg/kg combined with anti-PD-1 10 mg/kg, B16F10 graft

Cn1c(=O)[nH]c2ccc(-c3cccc(C(=O)NC4CCn5ccnc5C4)c3)cc21 (centres unmarked) [Z36-MP5, 3-(3-methyl-2-oxo-2,3-dihydro-1H-benzo[d]imidazol-5-yl)-N-(5,6,7,8-tetrahydroimidazo[1,2-a]pyridin-7-yl)benzamide]
Inhibition (%) by 1 μM Z36-MP5 (DERA): 6.01% | Inhibition (%) by 1 μM Z36-MP5 (PSMC3): 5.71% | Inhibition (%) by 1 μM Z36-MP5 (NME1, NME2): −1.52% | Inhibition (%) by 1 μM Z36-MP5 (ABCB6): 8.49% | Inhibition (%) by 1 μM Z36-MP5 (CCT7): 10.91% | Inhibition (%) by 1 μM Z36-MP5 (SMC1A): 5.67% | mouse survival (B16F10 melanoma graft; [1]): extended mouse survival | tumor growth (B16F10 melanoma graft; [1]): substantial inhibition | GZMB expression and activation markers CD69, IFN-γ, CD25 and CD107 in tumor-infiltrating CD8+ T cells (B16F10 melanoma graft; Z36-MP5 alone): upregulation | CD8+ T cell TILs (B16F10 melanoma graft; Z36-MP5 alone, graft melanomas): moderate increase | GZMB expression and activation markers CD69, IFN-γ, CD25 and CD107 in tumor-infiltrating CD8+ T cells (B16F10 melanoma graft; Z36-MP5 combined with anti-PD-1): augmented | CD8+ T cell TILs (B16F10 melanoma graft; Z36-MP5 combined with anti-PD-1, graft melanomas): augmented | population of CD4+ T cell and Treg cells (B16F10 melanoma graft; individual or combinational treatments, graft melanomas): not changed significantly | tumor growth or mouse survival (B16F10 melanoma graft; treatment alone, B16F10 graft): did not impact | Inhibition (%) by 1 μM Z36-MP5 (AK4): −9.19% | Inhibition (%) by 1 μM Z36-MP5 (DDX39): −8.90% | Inhibition (%) by 1 μM Z36-MP5 (TRAP1; TRAP1, SEQ ID NO: 209, ATP BS): −10.78% | Inhibition (%) by 1 μM Z36-MP5 (TRAP1; TRAP1, SEQ ID NO: 210, ATP BS): −11.57% | Inhibition (%) by 1 μM Z36-MP5 (ABCF2; ABCF2, SEQ ID NO: 17, ATP BS): −7.92% | Inhibition (%) by 1 μM Z36-MP5 (ABCF2; ABCF2, SEQ ID NO: 18, ATP BS): 26.88% | Inhibition (%) by 1 μM Z36-MP5 (AK5): 2.21% | Inhibition (%) by 1 μM Z36-MP5 (ATP5B): −14.96% | Inhibition (%) by 1 μM Z36-MP5 (AARS): −29.97% | Inhibition (%) by 1 μM Z36-MP5 (TOR2A, TOR2X): 0.38% | Inhibition (%) by 1 μM Z36-MP5 (PMS2): 3.36% | Inhibition (%) by 1 μM Z36-MP5 (AK7): 13.86% | Inhibition (%) by 1 μM Z36-MP5 (PDE12): −5.87% | Inhibition (%) by 1 μM Z36-MP5 (ACTR2; ACTR2, SEQ ID NO: 25, ATP BS): −16.82% | Inhibition (%) by 1 μM Z36-MP5 (ACTR2; ACTR2, SEQ ID NO: 26, ATP BS): −2.20% | Inhibition (%) by 1 μM Z36-MP5 (NMNAT3): 9.62% | Inhibition (%) by 1 μM Z36-MP5 (TK2): 14.43% | Inhibition (%) by 1 μM Z36-MP5 (NRK1): 0.34% | Inhibition (%) by 1 μM Z36-MP5 (ATG7; ATG7, SEQ ID NO: 45, ATP BS): −0.18% | Inhibition (%) by 1 μM Z36-MP5 (ATG7; ATG7, SEQ ID NO: 46, ATP BS): −6.20% | Inhibition (%) by 1 μM Z36-MP5 (HSPA2; HSPA2, SEQ ID NO: 102, ATP BS): −1.50% | Inhibition (%) by 1 μM Z36-MP5 (HSPA2; HSPA2, SEQ ID NO: 103, ATP BS): −5.18% | Inhibition (%) by 1 μM Z36-MP5 (NVL; SEQ ID NO: 148, ATP BS): −1.13% | Inhibition (%) by 1 μM Z36-MP5 (NVL; SEQ ID NO: 149, ATP BS): −8.26% | Inhibition (%) by 1 μM Z36-MP5 (MVK): 15.38% | Inhibition (%) by 1 μM Z36-MP5 (HSP90AA): −1.29% | inhibition at 1 µM (PSMD9): 2.13%
